Laboratory results from patent publication US20250213571A1, “TYK2 INHIBITORS AND USES THEREOF” (Alumis Inc., priority 2022, published 2025).
Where two headings read alike, the source gives them in different places.

Columns and labels:
[1] = cn_pd bond, 14-membered ring, 1,4-dioxane, 80.0 °C
[2] = cn_pd bond, 14-membered ring
[3] = molecular target: human TYK2 (JH2domain-pseudokinase) (Homo sapiens (Human), UniProt P29597); test: TYK2 JH2 domain binding assay (KINOMEscan)
Description: Binding constants for the compounds described herein against the JH2 domain were determined by the following protocol for a KINOMEscan® assay (DiscoveRx). A fusion protein of a partial length construct of human TYK2 (JH2domain-pseudokinase) (amino acids G556 to D888 based on reference sequence NP_003322.3) and the DNA binding domain of NFkB was expressed in transiently transfected HEK293 cells. From these HEK 293 cells, extracts were prepared in M-PER extraction buffer (Pierce) in the presence of Protease Inhibitor Cocktail Complete (Roche) and Phosphatase Inhibitor Cocktail Set II (Merck) per manufacturers' instructions. The TYK2 (JH2domain-pseudokinase) fusion protein was labeled with a chimeric double-stranded DNA tag containing the NFkB binding site fused to an amplicon for qPCR readout, which was added directly to the expression extract (the final concentration of DNA-tag in the binding reaction is 0.1 nM).
Streptavidin-coated magnetic beads (Dynal M280) were treated with a biotinylated small molecule ligand for 30 minutes at room temperature to generate affinity resins the binding assays. The liganded beads were blocked with excess biotin and washed with blocking buffer (SeaBlock (Pierce), 1% BSA, 0.05% Tween 20, 1 mM DTT) to remove unbound ligand and to reduce nonspecific binding.
The binding reaction was assembled by combining 16 μl of DNA-tagged kinase extract, 3.8 μl liganded affinity beads, and 0.18 μl test compound (PBS/0.05% Tween 20/10 mM DTT/0.1% BSA/2 μg/ml sonicated salmon sperm DNA)]. Extracts were used directly in binding assays without any enzyme purification steps at a ≥10,000-fold overall stock dilution (final DNA-tagged enzyme concentration <0.1 nM). Extracts were loaded with DNA-tag and diluted into the binding reaction in a two-step process. First extracts were diluted 1:100 in 1×binding buffer (PBS/0.05% Tween 20/10 mM DTT/0.1% BSA/2 […] sonicated salmon sperm DNA) containing 10 nM DNA-tag. This dilution was allowed to equilibrate at room temperature for 15 minutes and then subsequently diluted 1:100 in 1× binding buffer. Test compounds were prepared as 111× stocks in 100% DMSO. Kds were determined using an 11-point 3-fold compound dilution series with three DMSO control points. All compounds for Kd measurements were distributed by acoustic transfer (non-contact dispensing) in 100% DMSO. The compounds were then diluted directly into the assays such that the final concentration of DMSO was 0.9%. All reactions were performed in polypropylene 384-well plates. Each was a final volume of 0.02 mL. Assays were incubated with shaking for 1 hour at room temperature. Then the beads were pelleted and washed with wash buffer (1×PBS, 0.05% Tween 20) to remove displaced kinase and test compound. The washed based were resuspended in elution buffer (1 λPBS, 0.05% Tween […] non-biotinylated affinity ligand) and incubated at room temperature with shaking for 30 minutes. The kinase concentration in the eluates was measured by qPCR. qPCR reactions were assembled by adding 2.5 μL of kinase eluate to 7.5 μL of qPCR master mix containing […] amplicon primers and 0.15 μM amplicon probe. The qPCR protocol consisted of a 10 minute hot start at 95° C., followed by 35 cycles of 95° C. for 15 seconds, 60° C. for 1 minute.
Test compounds were prepared as 111× stocks in 100% DMSO. Kds were determined using an 11-point 3-fold compound dilution series with three DMSO control points. All compounds for Kd measurements were distributed by acoustic transfer (non-contact dispensing) in 100% DMSO. The compounds were then diluted directly into the assays such that the final concentration of DMSO was 0.9%. The Kds were determined using a compound top concentration of 30,000 nM. Kd measurements were performed in duplicate.
Binding constants (Kds) were calculated with a standard dose-response curve using the Hill equation: […]
The Hill Slope was set to −1. […]

TYK2 JH1 = TYK2 JH1 (Homo sapiens (Human), UniProt P29597); test: TYK2 JH1 binding (Kd, Table 2); conditions: JH1 domain
Sequence of TYK2 JH1 (P29597 897-1176): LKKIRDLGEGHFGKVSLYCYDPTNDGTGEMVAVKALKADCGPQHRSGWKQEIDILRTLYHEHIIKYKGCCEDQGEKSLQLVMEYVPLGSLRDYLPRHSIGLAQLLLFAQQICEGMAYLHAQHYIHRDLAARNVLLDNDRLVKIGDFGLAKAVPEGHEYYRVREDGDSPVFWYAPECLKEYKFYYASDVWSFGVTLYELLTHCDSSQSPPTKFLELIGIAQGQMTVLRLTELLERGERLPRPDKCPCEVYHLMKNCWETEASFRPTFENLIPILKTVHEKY

JAK3 JH1 = JAK3 JH1 (Homo sapiens (Human), UniProt P52333); test: JAK3 JH1 binding (Kd, Table 2); conditions: JH1 domain
Sequence of JAK3 JH1 (P52333 822-1111): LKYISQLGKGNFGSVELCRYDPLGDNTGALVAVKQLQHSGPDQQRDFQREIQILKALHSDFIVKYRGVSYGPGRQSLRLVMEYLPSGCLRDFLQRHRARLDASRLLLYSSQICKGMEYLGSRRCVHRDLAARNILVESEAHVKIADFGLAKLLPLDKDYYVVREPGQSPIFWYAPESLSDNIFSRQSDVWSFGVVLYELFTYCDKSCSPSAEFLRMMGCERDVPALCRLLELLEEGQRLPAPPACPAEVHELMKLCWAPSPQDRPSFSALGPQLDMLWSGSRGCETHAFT

JAK2 JH2 = JAK2 JH2 (Homo sapiens (Human), UniProt O60674); test: JAK2 JH2 binding (Kd, Table 2); conditions: JH2 domain
Sequence of JAK2 JH2 (O60674 545-809): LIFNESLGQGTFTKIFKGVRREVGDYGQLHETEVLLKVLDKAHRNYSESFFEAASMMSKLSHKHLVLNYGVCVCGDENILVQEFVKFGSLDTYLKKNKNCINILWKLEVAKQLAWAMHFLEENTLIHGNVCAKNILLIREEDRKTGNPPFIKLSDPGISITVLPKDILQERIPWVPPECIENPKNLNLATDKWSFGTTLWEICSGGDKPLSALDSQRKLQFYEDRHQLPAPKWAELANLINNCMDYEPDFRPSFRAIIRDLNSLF

JAK2 JH1 = JAK2 JH1 (Homo sapiens (Human), UniProt O60674); test: JAK2 JH1 binding (Kd, Table 2); conditions: JH1 domain
Sequence of JAK2 JH1 (O60674 849-1124): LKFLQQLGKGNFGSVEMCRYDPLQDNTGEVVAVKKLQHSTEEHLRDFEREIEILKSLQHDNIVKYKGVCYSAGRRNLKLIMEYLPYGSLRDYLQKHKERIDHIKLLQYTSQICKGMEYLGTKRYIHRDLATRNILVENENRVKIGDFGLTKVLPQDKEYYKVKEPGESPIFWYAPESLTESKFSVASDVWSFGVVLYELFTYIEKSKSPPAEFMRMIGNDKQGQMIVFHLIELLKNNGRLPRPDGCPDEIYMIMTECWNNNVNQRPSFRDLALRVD

JAK1 JH2 = JAK1 JH2 (Homo sapiens (Human), UniProt P23458); test: JAK1 JH2 binding (Kd, Table 2); conditions: JH2 domain
Sequence of JAK1 JH2 (P23458 583-855): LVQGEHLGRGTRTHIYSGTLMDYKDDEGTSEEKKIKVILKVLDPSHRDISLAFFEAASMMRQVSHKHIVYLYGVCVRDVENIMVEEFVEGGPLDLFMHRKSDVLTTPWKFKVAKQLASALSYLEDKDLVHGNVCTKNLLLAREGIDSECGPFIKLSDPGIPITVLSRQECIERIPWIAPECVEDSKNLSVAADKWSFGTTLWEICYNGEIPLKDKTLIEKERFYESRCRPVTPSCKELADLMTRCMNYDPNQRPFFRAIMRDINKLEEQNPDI

JAK1 JH1 = JAK1 JH1 (Homo sapiens (Human), UniProt P23458); test: JAK1 JH1 binding (Kd, Table 2); conditions: JH1 domain
Sequence of JAK1 JH1 (P23458 875-1153): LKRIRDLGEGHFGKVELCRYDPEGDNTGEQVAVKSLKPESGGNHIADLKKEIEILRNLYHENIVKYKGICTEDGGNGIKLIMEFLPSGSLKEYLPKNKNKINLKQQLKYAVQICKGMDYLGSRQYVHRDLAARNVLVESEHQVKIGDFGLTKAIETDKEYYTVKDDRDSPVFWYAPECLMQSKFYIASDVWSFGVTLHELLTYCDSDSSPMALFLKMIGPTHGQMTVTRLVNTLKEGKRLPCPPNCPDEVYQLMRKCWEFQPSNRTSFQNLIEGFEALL

Sequence of human TYK2 (JH2domain-pseudokinase) (P29597 556-888): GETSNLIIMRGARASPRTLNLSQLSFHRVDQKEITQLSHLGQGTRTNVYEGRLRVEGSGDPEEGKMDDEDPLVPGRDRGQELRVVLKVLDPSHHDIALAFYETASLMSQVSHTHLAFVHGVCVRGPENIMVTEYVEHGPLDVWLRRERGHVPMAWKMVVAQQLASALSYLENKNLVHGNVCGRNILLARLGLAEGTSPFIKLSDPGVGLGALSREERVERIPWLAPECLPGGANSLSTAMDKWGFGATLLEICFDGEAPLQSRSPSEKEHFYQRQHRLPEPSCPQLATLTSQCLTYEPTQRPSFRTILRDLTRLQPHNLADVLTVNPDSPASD

With “tert-butyl N-methyl-N-[(12R)-12-methyl-10-oxo-14-oxa-2,4,5,7,11,16-hexaazapentacyclo[13.6.2.2^(3,6.0^(5,9.0^(19,23]pentacosa-1(21),3,6,8,15,17,19,22,24-nonaen-24-yl]carbamate” the ring closure, yield after HPLC ([1]; Pd2(dba)3/Xantphos/Cs2CO3, 50.0 mM) was 60%.

“(14R)-19-[(4-methoxyphenyl)methyl]-21-([(4-methoxyphenyl)methyl](methyl)amino-7,14-dimethyl-12-oxa-2,5,6,7,15,18,19,22,23-nonaazapentacyclo[15.5.2.1^(3,10.0^(4,8.0^(20,24]pentacosa-1(23),3(25),4(8),5,9,17,20(24),21-octaen-16-one” gave a ring closure, isolated yield ([2]; Pd2(dba)3/Xantphos/Cs2CO3, 1,4-dioxane, 36.5 mM, 100.0 °C) of 74%.

With CNc1nc2cn3c(c(C)nc13)C(=O)N[C@H](C)COCc1cc(c3nnn(C)c3c1)N2 [Compound 78] the ring closure, yield after HPLC ([1]; from CNc1nc(Br)cn2c(C(=O)N[C@H](C)COCc3cc(N)c4nnn(C)c4c3)c(C)nc12, RuPhos Pd G3/Cs2CO3, 64.0 mM) was 11.3% and the Kd [3] was 1000 to 10000 nM.

CNc1nc2cnc3cn2c1C(=O)N[C@H](C)COCc1cc(c2nnn(C)c2c1)N3 showed a ring closure, isolated yield ([2]; from CNc1nc2cnc(Br)cn2c1C(=O)N[C@H](C)COCc1cc(N)c2nnn(C)c2c1, RuPhos Pd G3/Cs2CO3, dioxane, 62.0 mM, 100.0 °C, 16.0 h) of 10%.

For “tert-butyl N-methyl-N-[(14R)-14-methyl-16-oxo-12-oxa-2,7,8,15,19,23,24-heptaazapentacyclo[15.5.2.1^(3,10.0^(5,9.0^(20,24]pentacosa-1(23),3(25),4,6,9,17,19,21-octaen-21-yl]carbamate”, the ring closure, isolated yield ([2]; Pd2(dba)3/BINAP/Cs2CO3, 1,4-dioxane, 23.0 mM, 80.0 °C) was 71%.

Work on C[C@@H]1COCc2cc(c3nnn(C)c3c2)Nc2cc(N(C)C(=O)OC(C)(C)C)c3ncc(n3n2)C(=O)N1 yielded a ring closure, isolated yield ([2]; from C[C@H](COCc1cc(N)c2nnn(C)c2c1)NC(=O)c1cnc2c(N(C)C(=O)OC(C)(C)C)cc(Cl)nn12, Pd2(dba)3/BINAP/Cs2CO3, dioxane, 50.0 mM, 16.0 h) of 50%.

For C[C@@H]1COc2ccnc3cnc(cc23)Nc2cc(N(C)C(=O)OC(C)(C)C)c3ncc(n3n2)C(=O)N1, the ring closure, isolated yield ([2]; from C[C@H](COc1ccnc2cnc(N)cc12)NC(=O)c1cnc2c(N(C)C(=O)OC(C)(C)C)cc(Cl)nn12, Pd2(dba)3/Xantphos/Cs2CO3, 1,4-dioxane, 57.0 mM, 80.0 °C, 16.0 h) was 54%.

Work on “tert-Butyl ((7R,E)-7-(hydroxymethyl)-3^1-methyl-9-oxo-3^1H-5-oxa-2,8-diaza-1(6,3),3(4,6)-diimidazo[1,2-b]pyridazinacyclononaphane-1^8-yl)(methyl)carbamate” yielded a ring closure, isolated yield ([2]; Pd2(dba)3/BINAP/Cs2CO3, dioxane, 10.0 mM) of 25%.

For “tert-butyl N-methyl-N-[(12R)-12-methyl-10-oxo-14-oxa-2,4,5,7,11,18-hexaazapentacyclo[13.6.2.2^(3,6.0^(5,9.0^(19,23]pentacosa-1(22),3,6,8,15,17,19(23),20,24-nonaen-24-yl]carbamate”, the ring closure, isolated yield ([2]; Pd2(dba)3/Cs2CO3, 1,4-dioxane, 42.3 mM, 80.0 °C) was 67%.

Compound “tert-butyl N-methyl-N-[(12R)-12-methyl-10-oxo-14-oxa-2,4,5,7,11,22-hexaazapentacyclo[13.6.2.2^(3,6.0^(5,9.0^(19,23]pentacosa-1(21),3,6,8,15,17,19,22,24-nonaen-24-yl]carbamate” has a ring closure, isolated yield ([2]; Pd2(dba)3/Xantphos/Cs2CO3, 1,4-dioxane, 95.0 mM, 80.0 °C) of 86%.

With CNc1cc2nc3c(cnn13)C(=O)N[C@H](C)COCc1cc(c3nnn(C)c3c1)N2 [Compound 33] the Kd [3] was under 10 nM, the Kd (TYK2 JH1) was at least 30 µM and the Kd (JAK3 JH1) was at least 30 µM. For the same compound, the Kd (JAK2 JH2) was at least 30 µM, the Kd (JAK2 JH1) was at least 30 µM and the Kd (JAK1 JH2) was 1000 to 10000 nM. The Kd (JAK1 JH1) was at least 30 µM.

Work on [2H]C1([2H])OC[C@@H](C)NC(=O)c2cnc3c(NC)cc(nn23)Nc2cc1cc1c2nnn1C [Compound 7, (7R,E)-3′,7-Dimethyl-1^8-(methylamino)-3^1H-5-oxa-2,8-diaza-1(6,3),3(4,6)-diimidazo[1,2-b]pyridazinacyclononaphan-9-one-4,4-d2] yielded a Kd [3] of under 10 nM, a Kd (TYK2 JH1) of 1 to 10 µM and a Kd (JAK3 JH1) of 10 to 30 µM. For the same compound, the Kd (JAK2 JH2) was 1 to 10 µM, the Kd (JAK2 JH1) was at least 30 µM and the Kd (JAK1 JH2) was 10 to 1000 nM. The Kd (JAK1 JH1) was at least 30 µM.

Compound CNc1cc2nc3c(cnn13)C(=O)N[C@H](C)COCc1cc(c3c(c1)nnn3C)N2 [Compound 37] has a Kd [3] of under 10 nM, a Kd (TYK2 JH1) of at least 30 µM and a Kd (JAK3 JH1) of at least 30 µM. For the same compound, the Kd (JAK2 JH2) was at least 30 µM, the Kd (JAK2 JH1) was at least 30 µM and the Kd (JAK1 JH2) was 10000 to 30000 nM. For the same compound, the Kd (JAK1 JH1) was at least 30 µM.

Compound CNc1cc2nn3c(cnc13)C(=O)N[C@H](C)COCc1cc(c3c(c1)ncn3C)N2 [Compound 8, (7R,E)-3′,7-Dimethyl-1^8-(methylamino)-3^1H-5-oxa-2,8-diaza-1(6,3)-imidazo[1,2-b] pyridazina-3(7,5)-benzo[d]imidazolacyclononaphan-9-one] has a Kd (TYK2 JH1) of 1 to 10 µM, a Kd (JAK3 JH1) of 10 to 30 µM and a Kd (JAK2 JH2) of 1 to 10 µM. It also gave a Kd (JAK2 JH1) of at least 30 µM, a Kd (JAK1 JH2) of 10 to 1000 nM and a Kd (JAK1 JH1) of at least 30 µM.

With CNc1cc2nn3c(cnc13)C(=O)O[C@H](C)COCc1cc(c3nnn(C)c3c1)N2 [Compound 3, (7R,E)-3′,7-Dimethyl-1^8-(methylamino)-3^1H-5,8-dioxa-2-aza-1(6,3),3(4,6)-diimidazo[1,2-b]pyridazinacyclononaphan-9-one] the ring closure, isolated yield ([2]; from CNc1cc(Cl)nn2c(C(=O)O[C@H](C)COCc3cc(N)c4nnn(C)c4c3)cnc12, Pd2(dba)3/BINAP/Cs2CO3, dioxane, 27.5 mM, 16.0 h) was 33%, the Kd [3] was under 10 nM and the Kd (TYK2 JH1) was at least 30 µM. The Kd (JAK1 JH2) was 1000 to 10000 nM.

Compound “tert-butyl N-methyl-N-[(12R)-12-methyl-10-oxo-2,4,5,7,11,14,18-heptaazapentacyclo[13.6.2.2^(3,6.0^(5,9.0^(19,23]pentacosa-1(21),3,6,8,15,17,19,22,24-nonaen-24-yl]carbamate” has a ring closure, isolated yield ([2]; Pd2(dba)3/Xantphos/Cs2CO3, 1,4-dioxane, 85.0 mM, 90.0 °C) of 62%.

CNc1cc2nc3c(cnn13)C(=O)N[C@H](C)COCc1cc(c3nn(C)nc3c1)N2 [Compound 34] gave a Kd [3] of under 10 nM, a Kd (TYK2 JH1) of at least 30 µM and a Kd (JAK3 JH1) of at least 30 µM. For the same compound, the Kd (JAK2 JH2) was 10 to 30 µM, the Kd (JAK2 JH1) was at least 30 µM and the Kd (JAK1 JH2) was 10 to 1000 nM. For the same compound, the Kd (JAK1 JH1) was at least 30 µM.
